Measured values taken from the supplement of paper PMC4862054.
Where “and” joins values, the source holds several entries; their conditions need not be identical. Equal entries are not always repeated.

How the values were obtained:
Conditions in all cases: incubation time: 72 h
CAL-85-1 = assay: drug sensitivity score (DSS), CellTox Green (DSS (AUC-based score)); higher = stronger drug effect (viability inhibition or cytotoxicity); extreme values may be limits of the assay
How it was run: (§1)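 A drug sensitivity score was derived from the area under each fitted dose-response curve. Breast cancer cells (20 µl suspension) were seeded onto compound in 384-well plates, using 5 concentrations 10-fold apart over a compound-specific 10,000-fold range, and incubated 72 h. Readouts were CellTox Green fluorescence and then CellTiter-Glo luminescence, with every plate normalised to 0.1 % DMSO and a positive kill control.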

CAL-148 = assay: as above
How it was run: as §1

MFM-223 = assay: as above
How it was run: as §1

BT-549 = assay: normalised viability (% of control), CellTiter-Blue; higher = more viable cells (about 100 = DMSO control)
How it was run: (§2)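 Each value is normalised viability at a single listed concentration of the series. Breast cancer cell lines in 384-well plates were incubated 72 h with compound and read by CellTiter-Blue fluorescence at 560/590 nm, with vehicle set to 100 and a positive kill control to 0 on every plate.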

HCC1937 = assay: as above
How it was run: as §2

SK-BR-3 = assay: as above
How it was run: as §2

MDA-MB-436 = assay: as above
How it was run: as §2

HCC1599 = assay: as above
How it was run: as §2

Row | SMILES | drug sensitivity score (CAL-85-1) | drug sensitivity score (CAL-148) | drug sensitivity score (MFM-223) | normalised viability (BT-549; 100 nM) | normalised viability (HCC1937; 100 nM) | normalised viability (SK-BR-3; 100 nM) | normalised viability (MDA-MB-436; 100 nM) | normalised viability (HCC1599; 100 nM) | further results
1 | Cn1cc(C2=Nc3cc(NC(=O)C(N)C4CCCCC4)cc4c3C2=CNNC4=O)cn1 (centres undefined) | 12 | 0 | 5.76 | 100% | 90.7% | 38.4% | 93.4% | 75.9% | –
2 | CC(=O)O[C@@]12CO[C@@H]1C[C@H](O)[C@@]1(C)C(=O)[C@H](O)C3=C(C)[C@@H](OC(=O)[C@H](O)[C@@H](NC(=O)OC(C)(C)C)c4ccccc4)C[C@@](O)([C@@H](OC(=O)c4ccccc4)[C@H]21)C3(C)C [Docetaxel] | 25.5 | 0 | 10.2 | – | – | – | – | – | normalised viability (BT-549; 10 nM): 28% and 25.4%; normalised viability (HCC1937; 10 nM): 32.2% and 27.2%; normalised viability (SK-BR-3; 10 nM): 6.91% and 8.46%; normalised viability (MDA-MB-436; 10 nM): 51.1% and 52%; normalised viability (HCC1599; 10 nM): 110% and 108%
3 | CC(=O)c1c(C)c2cnc(Nc3ccc(N4CCNCC4)cn3)nc2n(C2CCCC2)c1=O | – | – | – | 108% | 97.2% | 78% | 111% | 88.2% | –
4 | Oc1ncnc2[nH]ncc12 [Allopurinol] | 0.422 | 0 | 0 | 87.3% | 94.5% | 103% | 108% | 98.5% | –
5 | C[C@]1(O)C[C@@H](c2nc(-c3ccc4ccc(-c5ccccc5)nc4c3)c3c(N)nccn32)C1 [OSI-906] | – | – | – | 84.4% | 92.5% | 78.3% | 94.5% | 94.9% | –
6 | COc1cc(F)c(F)c(Nc2ccc(I)cc2F)c1NS(=O)(=O)C1(C[C@H](O)CO)CC1 [RDEA119] | – | – | – | 77.4% | 87.7% | 90.7% | 90.4% | 87.4% | –
7 | O=C1CN2Cc3c(ccc(Cl)c3Cl)N=C2N1 [Anagrelide] | 0 | – | 0 | 92.5% | 94.9% | 60.9% | 94.2% | 104% | –
8 | Cn1cnc2c(F)c(Nc3ccc(Br)cc3Cl)c(C(=O)NOCCO)cc21 [Selumetinib] | 0 | 0 | 0 | 110% | 97.9% | 65.7% | 123% | 96.6% | –
9 | CC1=C2C[C@H]3[C@@H](CC=C4C[C@@H](O)CC[C@@]43C)[C@@H]2CC[C@]12O[C@@H]1C[C@H](C)CN[C@H]1[C@H]2C [Cyclopamine] | 0 | 0 | 0 | 111% | 100% | 90.8% | 96.3% | 113% | –
10 | COc1cc2c(cc1O)CC[C@@H]1[C@@H]2CC[C@]2(C)[C@@H](O)CC[C@@H]12 [2-methoxyestradiol] | 0 | 0 | 6.65 | 91.7% | 103% | 99.2% | 100% | 95% | –
11 | O=NN(CCCl)C(=O)NCCCl [Carmustine] | 0 | 0 | 0 | 111% | 87.8% | 102% | 119% | 114% | –
12 | Cc1sc2c(c1C)C(c1ccc(Cl)cc1)=N[C@@H](CC(=O)OC(C)(C)C)c1nnc(C)n1-2 [(+)JQ1] | 8.47 | 6.55 | 0 | 80.9% | 98.4% | 98.3% | 136% | 100% | –
13 | CC1(C)CNc2cc(NC(=O)c3cccnc3NCc3ccncc3)ccc21 [Motesanib] | 0 | 0 | 0 | 88.1% | 90.5% | 79.3% | 79.7% | 101% | –
14 | CC[C@@H]1C(=O)OC[C@@H]1Cc1cncn1C [Pilocarpine] | 0 | 0 | 0 | – | – | – | – | – | normalised viability (BT-549; 400 nM): 111%; normalised viability (HCC1937; 400 nM): 95.1%; normalised viability (SK-BR-3; 400 nM): 103%; normalised viability (MDA-MB-436; 400 nM): 105%; normalised viability (HCC1599; 400 nM): 99.6%
15 | CC(C)(C)c1cnc(CSc2cnc(NC(=O)C3CCNCC3)s2)o1 [SNS-032] | 20.9 | 0 | 6.31 | 91.7% | 53.2% | 62.1% | 104% | 78.6% | –
16 | Nc1nc2[nH]cnc2c(=S)[nH]1 [Thioguanine] | 0 | 0 | 0 | 94.6% | 98.5% | 87.5% | 103% | 103% | –
17 | C[C@]12CC[C@@H]3c4ccc(OC(=O)N(CCCl)CCCl)cc4CC[C@H]3[C@@H]1CC[C@@H]2O [Estramustine] | 0 | 0 | 0 | – | – | – | – | – | normalised viability (BT-549; 9.9 nM): 79.8%; normalised viability (HCC1937; 9.9 nM): 101%; normalised viability (SK-BR-3; 9.9 nM): 106%; normalised viability (MDA-MB-436; 9.9 nM): 92.1%; normalised viability (HCC1599; 9.9 nM): 91.4%
18 | Nc1ncn([C@@H]2O[C@H](CO)[C@@H](O)[C@H]2O)c(=O)n1 [Azacitidine] | 0 | 0 | 0 | 106% | 98.3% | 89.3% | 89.3% | 97% | –
